This is an account of results in US20240307419A1, “CONFORMATIONALLY-CONSTRAINED INHIBITORS OF 3C OR 3C-LIKE PROTEASES” (priority 2021, published 2024).

In data set [1] the test system is SARS-CoV-2 replicon. Briefly: microbe, parasite or virus in culture. Format: cell-based. As to conditions: read-out: EC50, SARS-CoV-2 replicon assay. In general terms: A replicon is a self-replicating genome or part of one, used to study replication in cells.
Another data set relates to CRFK cells. As to conditions: cat.
Another data set deals with SARS-CoV-2 3CLpro (Severe acute respiratory syndrome coronavirus 2 (2019-nCoV) (SARS-CoV-2), UniProt P0DTD1). Briefly: biochemical. Format: biochemical.
A further data set has as its target MERS-CoV 3CLpro (Middle East respiratory syndrome-related coronavirus (isolate United Kingdom/H123990006/2012) (MERS-CoV) (Betacoronavirus England 1), UniProt K9N7C7). Format: biochemical.
Data set [2] deals with SARS-CoV-2.
In data set [3] the test system is Huh-7, CRFK, or CCL1 cells.
The subject of data set [4] is SARS-CoV-2. Briefly: in vitro. The conditions noted are these: African green monkey.
Data set [5] concerns SARS-CoV-2. Briefly: microbe, parasite or virus in culture. As to conditions: Severe acute respiratory syndrome coronavirus 2, Vero C1008, read-out: EC50 against SARS-CoV-2 in Vero E6 cells.
For data set [6], the system named is SARS-CoV-2 replicon. As to conditions: 293T cells, previously reported; read-out: EC50 previously reported with the same system; cited from earlier work.
The test system of data set [7] is feline infectious peritonitis virus (FIPV). The conditions noted are these: cell culture and naturally infected animals with long term treatment; previously reported; cited from earlier work.
The mark [8] stands for this setting: Severe acute respiratory syndrome coronavirus 2, HEK-293T, 30 h.

The EC50 is the concentration needed to bring the measured effect to its halfway point. Broadly, the CC50 is the concentration giving 50% cytotoxicity. Broadly, the IC50 is the concentration that gives 50% inhibition.

The structures appear in SMILES notation. Like-named read-outs stand apart in the source and are kept apart here.

Sequence of MERS-CoV 3CLpro (K9N7C7 3248-3553 limits assumed): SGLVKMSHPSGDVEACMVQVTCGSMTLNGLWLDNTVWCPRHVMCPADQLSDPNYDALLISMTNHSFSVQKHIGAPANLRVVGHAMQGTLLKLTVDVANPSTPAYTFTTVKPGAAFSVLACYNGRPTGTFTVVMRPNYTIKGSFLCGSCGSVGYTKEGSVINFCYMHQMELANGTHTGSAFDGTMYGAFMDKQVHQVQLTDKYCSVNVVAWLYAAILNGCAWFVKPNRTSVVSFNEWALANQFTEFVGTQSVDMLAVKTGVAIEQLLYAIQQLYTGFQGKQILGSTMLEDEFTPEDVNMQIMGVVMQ

Regarding `CC(C)C[C@H](NC(=O)OC1CC2(CCN(C(=O)OC(C)(C)C)CC2)C1)C(=O)N[C@@H](C[C@H]1CCNC1=O)C(O)S(=O)(=O)O` (stereo partly drawn) [Compound 7c, Sodium (2S)-2-((S)-2-((((7-(tert-butoxycarbonyl)-7-azaspiro[3.5]nonan-2-yl)oxy)carbonyl)amino)-4-methylpentanamido)-1-hydroxy-3-((R)-2-oxopyrrolidin-3-yl)propane-1-sulfonate], the EC50 in the data set with SARS-CoV-2 replicon [1] (setting [8]) is 80 nM. The compound further registered a CC50 in the data set on CRFK cells above 100000 nM.
Regarding `CC(C)C[C@H](NC(=O)OC[C@@H]1C[C@@H]2CCC[C@@H](C2)C1)C(=O)N[C@H](C=O)C[C@@H]1CCNC1=O` [Compound 2a, ((1R,3s,5S)-Bicyclo[3.3.1]nonan-3-yl)methyl ((S)-4-methyl-1-oxo-1-(((S)-1-oxo-3-((S)-2-oxopyrrolidin-3-yl)propan-2-yl)amino)pentan-2-yl)carbamate], the IC50 on SARS-CoV-2 3CLpro (read-out: IC50) was 180 ± 30 nM. This compound also showed an IC50 at MERS-CoV 3CLpro of 52 ± 1 nM. For the same compound, in the data set with SARS-CoV-2 [2], the “EC50 lower than the corresponding IC50 values” was around 4.6 fold and the selectivity indices is 2857. For the same compound, in the data set on SARS-CoV-2 [2] (read-out: EC50 against SARS-CoV-2 in Vero E6 cells), the EC50 was 35 nM. The compound further gave a 50% cytotoxic concentration (CC50) in data set [3] above 100000 nM.
Regarding `CC(C)C[C@H](NC(=O)OCC1C[C@H]2CCC[C@@H](C1)C2)C(=O)N[C@@H](C[C@@H]1CCNC1=O)C(O)S(=O)(=O)[O-].[Na+]` (stereo partly drawn) [Compound 3a, Sodium (2S)-2-((2S)-2-(((((1R,5S)-bicyclo[3.3.1]nonan-3-yl)methoxy)carbonyl)amino)-4-methylpentanamido)-1-hydroxy-3-((S)-2-oxopyrrolidin-3-yl)propane-1-sulfonate], the results for the IC50 at SARS-CoV-2 3CLpro (read-out: IC50) and against MERS-CoV 3CLpro were 170 ± 20 nM and 49 ± 2 nM, respectively. For the same compound, the “EC50 lower than the corresponding IC50 values” in the data set with SARS-CoV-2 [2] is around 4.6 fold. Also, the CC50 in [3] was above 100000 nM. In addition, the selectivity ratio in the data set with SARS-CoV-2 [4] turned out to be 3120. In the data set with SARS-CoV-2 [5], the EC50 was 32 nM.
For the compound `CC(C)C[C@H](NC(=O)OC1CC2(CCN(C(=O)OC(C)(C)C)CC2)C1)C(=O)N[C@H](C=O)C[C@H]1CCNC1=O` [Compound 7b, Tert-butyl 2-((((S)-4-methyl-1-oxo-1-(((S)-1-oxo-3-((R)-2-oxopyrrolidin-3-yl)propan-2-yl)amino)pentan-2-yl)carbamoyl)oxy)-7-azaspiro[3.5]nonane-7-carboxylate], the “IC50 lower than that of compound 1b” value on SARS-CoV-2 3CLpro is above 9 fold. For the same compound, the EC50 in the data set on SARS-CoV-2 replicon [1] (setting [8]) stood at 90 nM. This compound also came in with a CC50 with CRFK cells above 100000 nM.
The compound `CC(C)C[C@H](NC(=O)OCC1CN(C(=O)OC(C)(C)C)C1)C(=O)N[C@@H](C[C@H]1CCNC1=O)C(O)S(=O)(=O)O` (stereo partly drawn) [Compound 14c, Sodium (2S)-2-((S)-2-((((1-(tert-butoxycarbonyl)azetidin-3-yl)methoxy)carbonyl)amino)-4-methylpentanamido)-1-hydroxy-3-((R)-2-oxopyrrolidin-3-yl)propane-1-sulfonate] showed an IC50 on SARS-CoV-2 3CLpro of 50 nM. The EC50 with SARS-CoV-2 replicon [1] (setting [8]) came out at 430 nM. In the data set with CRFK cells, this compound gave a CC50 above 100000 nM.
In the case of `CC(C)C[C@H](NC(=O)OCc1ccccc1)C(=O)N[C@@H](CC1CCNC1=O)C(O)S(=O)(=O)O` (stereo partly shown) [GC376], the EC50 in the data set with SARS-CoV-2 replicon [1] was 37 ± 10 nM; with SARS-CoV-2 replicon [6] it was 20 nM.
As for `CC(C)C[C@H](NC(=O)OCC1CN(C(=O)OC(C)(C)C)C1)C(=O)N[C@H](C=O)C[C@H]1CCNC1=O` [Compound 14b, Tert-butyl 3-(((((S)-4-methyl-1-oxo-1-(((S)-1-oxo-3-((R)-2-oxopyrrolidin-3-yl)propan-2-yl)amino)pentan-2-yl)carbamoyl)oxy)methyl)azetidine-1-carboxylate], the EC50 in the data set with SARS-CoV-2 replicon [1] (setting [8]) stood at 380 nM. This compound displayed a CC50 with CRFK cells above 100000 nM.
Take `CC(C)C[C@H](NC(=O)OCc1ccccc1)C(=O)N[C@@H](C[C@@H]1CCNC1=O)C(O)S(=O)(=O)[O-].[Na+]` (stereo partly shown) [GC376]: in [7], the “barrier to resistance to FIPV” value was “high barrier to resistance”.
